# Data from paper PMC5522427, “Structural and Functional Analysis of Latex Clearing Protein (Lcp) Provides Insight into the Enzymatic Cleavage of Rubber” (Scientific Reports, 2017).
# Target: T1, LcpK30 (Streptomyces sp. K30, UniProt Q3L8N0)
# T1 construct: gene lcp; monomer; residues 31-403 modelled; haem b
# Assay: crystal structure of complex ([…] Å); EPR
# Assay type: binding
# Settings: open state; imidazole coordinates haem iron as distal axial ligand, replacing Lys167; 0.2 M malate/imidazole pH 7.5 (crystal); 1 mM imidazole (EPR); ferric as isolated
# T1 sequence (Q3L8N0 31-407): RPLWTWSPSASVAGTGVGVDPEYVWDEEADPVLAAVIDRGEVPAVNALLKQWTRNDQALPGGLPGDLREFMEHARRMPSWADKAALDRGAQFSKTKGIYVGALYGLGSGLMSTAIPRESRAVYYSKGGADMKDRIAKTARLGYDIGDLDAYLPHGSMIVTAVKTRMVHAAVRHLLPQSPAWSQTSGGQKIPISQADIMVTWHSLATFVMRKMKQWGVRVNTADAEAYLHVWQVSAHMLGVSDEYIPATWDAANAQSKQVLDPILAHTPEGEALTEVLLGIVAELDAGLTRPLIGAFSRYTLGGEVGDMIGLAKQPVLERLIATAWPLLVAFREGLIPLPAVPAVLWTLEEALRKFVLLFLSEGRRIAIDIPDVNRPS
compound,measurement,value
c1c[nH]cn1 [imidazole],crystal structure of complex (1.48 Å); EPR,the distal axial position at the haem iron was now occupied by an imidazole molecule
